Laboratory results reported in patent US10016413B2, “Combination dopamine antagonist and opiate receptor antagonist treatment of addictive behavior” (University of Maryland, Baltimore, priority 2012, dated 2018).
“Also recorded” adds a separate entry of the source.

Assays:
[1] = tested on: cocaine induced reinstatement of CPP; experiment: Cocaine induced reinstatement of CPP (mouse model of CPP); format: in vivo; settings: conditioned with 10 mg/kg cocaine, reinstated with 5 mg/kg cocaine, l-THP 3 mg/kg, naltrexone 0.1 mg/kg, alone or combined
Method: Animals were conditioned using 10 mg/kg cocaine for 4 days, and reinstated using 5 mg/kg cocaine. Reinstatement was carried out 48 hours after CPP was extinct. The CPP score is calculated as a change in baseline from the cocaine conditioned chamber. A two way ANOVA followed by Bonferroni post test comparisons was used for analysis of the effect of treatment on cocaine reinstatement.
Fixed dose l-THP/LDN (3 mg/kg/0.1 mg/kg) were tested in mouse model of CPP.

locomotor activity = experiment: Treatment effect on locomotor activity during extinction/treatment; format: in vivo, mouse; settings: over the treatment period; l-THP 3 mg/kg, naltrexone 0.1 mg/kg, alone or combined
Method: Over the course of extinction/treatment the animal's locomotor activity was recorded. The locomotion scores graphed represent the treatment locomotion with the baseline locomotion score subtracted.

cocaine users = experiment: Safety of l-THP in cocaine users: PD (blood pressure, heart rate); format: in vivo, human; settings: for BP (Change from baseline %), first value of the pair / BP (Change from baseline %), second value of the pair / HR (Change from baseline %): n = 3
Text: (§1) Data on safety of l-THP in six subjects of cocaine users was generated (Table 1). The major PD/PK parameters of the drug-drug interaction between l-THP and cocaine in cocaine users were compared between active drug and placebo groups. […] Since l-THP will be 10 fold more than LDN in the combination, the safety of l-THP is the major safety concern in the combination for human drug addicts.

[2] = PK of the drug-drug interaction between l-THP and cocaine in cocaine users; format: in vivo, human; settings: cocaine users
Text: as §1

cocaine addicted mice = experiment: Naltrexone induced withdrawal (global withdrawal score); format: in vivo; settings: mice treated with 10 mg/kg cocaine over 4 days
Method: Animals were treated with 10 mg/kg cocaine over 4 days. On the 5th day animals were injected with different dose of Naltrexone and 3 mg/kg l-THP. After injection animals were monitored for withdrawal behaviors for 20 minutes. Total counts for jumping, teeth chattering, paw tremors and grooming with assigned points were used to calculate the global withdrawal score. A one way ANVOA followed by Bonferroni post test comparisons was used to determine the effect naltrexone dose on withdrawal (***p<0.001 and *p<0.05 respectively) n=5 for each group. Global Scores were calculated.
This effect was attributed to cocaine's up regulation of endogenous opioids and the significant blockade of opioid receptor by naltrexone.

[3] = cocaine users, first column group headed Post cocaine 0 min
[4] = cocaine users, second column group headed Post cocaine 0 min

Row | SMILES | effect of treatment on cocaine reinstatement of CPP [1] | effect on locomotor activity (locomotion) (locomotor activity) | peak changes in heart rate (HR) and blood pressure (BP) (cocaine users; cocaine users) | BP (Change from baseline %), first value of the pair (cocaine users; [3]) | BP (Change from baseline %), second value of the pair (cocaine users; [3]) | HR (Change from baseline %) (cocaine users; [3]) | BP (Change from baseline %), first value of the pair (cocaine users; [4]) | BP (Change from baseline %), second value of the pair (cocaine users; [4]) | HR (Change from baseline %) (cocaine users; [4]) | safety and tolerability in cocaine users (cocaine users; six subjects of cocaine users, active drug vs placebo) | effect of l-THP pretreatment on the Cmax or AUC0-inf of cocaine ([2]; vs placebo pretreated) | AUC(0-inf) ([2]; human, in vivo, n = 2, mean only, analyte l-THP, read-out: I-THP AUC 0-inf) | Cmax ([2]; human, in vivo, n = 2, mean only, analyte l-THP, read-out: I-THP Cmax) | withdrawal, lower doses of naltrexone (cocaine addicted mice; naltrexone 1 mg/kg, 0.3 mg/kg and 0.1 mg/kg co-administered with l-THP (3 mg/kg)) | withdrawal symptoms, high dose naltrexone (cocaine addicted mice; naltrexone 30 mg/kg or 15 mg/kg co-administered with l-THP (3 mg/kg))
1 | COc1cc2c(cc1OC)[C@@H]1Cc3ccc(OC)c(OC)c3CN1CC2 [l-THP, levo-tetrahydropalmatine] | significant attenuation | significant effect on locomotion during week 3 and week 4; also recorded: reduced locomotor activity significantly | within acceptable margin | 8 ± 9.3% | 10 ± 13% | 23.6 ± 27.1% | 5 ± 3% | 5 ± 2% | 8.5 ± 8.1% | safe and well tolerated | does not increase | 393 ng·h/mL | 38 ng/mL |  | 
2 | O=C1CC[C@@]2(O)[C@H]3Cc4ccc(O)c5c4[C@@]2(CCN3CC2CC2)[C@H]1O5 [naltrexone] | did not have significant effect | did not display significant effect |  |  |  |  |  |  |  |  |  |  |  | did not produce withdrawal | withdrawal symptoms occurred
